In general, GI50 refers to the concentration at which growth is held to half of that of the control. In general, TGI refers to the concentration giving total growth inhibition.

Here are results for 13 compounds from PubChem BioAssay (NCI).

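Assay format: 96-well plates, 48-hour exposure. At the GI50, growth is halved. TGI denotes the concentration required for complete inhibition of growth.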 Calls of active or inactive are those of the source. No stated cut-off is given here; in the data, active means GI50 below about 0.43 µM; inactive means the rest.

Test systems include MDA-MB-435; MDA-MB-231 breast; A549 NSCLC; KM12 colon; HOP-62 NSCLC; CCRF-CEM leukemia; SW-620 colon; COLO 205 colon; PC-3 prostate.
Assay in all cases: DTP human tumour cell line panel, 48 h

For the compound `CC12CCC3C(CCC4Cc5[nH]c6ccccc6c5CC43C)C1CCC2O` (centres undefined), the GI50 in the experiment on MDA-MB-435 was 0.241 µM; with MDA-MB-231 breast it was 2.09 µM; in the experiment on A549 NSCLC, 2.63 µM; in the experiment with KM12 colon, 2.8 µM; in the experiment with HOP-62 NSCLC it was 0.348 µM; in the experiment with CCRF-CEM leukemia, 1 µM. Besides, the GI50 is 0.497 µM in the experiment on SW-620 colon, 2.76 µM in the experiment with COLO 205 colon and 3.13 µM with PC-3 prostate. In addition, the TGI is 0.717 µM in the experiment with MDA-MB-435; 7.16 µM with MDA-MB-231 breast; greater than 100 µM with A549 NSCLC; 8.61 µM in the experiment with KM12 colon; 2.57 µM with HOP-62 NSCLC; 6.44 µM with CCRF-CEM leukemia. In addition, the figures for the TGI in the experiment on SW-620 colon, with COLO 205 colon and in the experiment on PC-3 prostate were greater than 100 µM, 6.78 µM and greater than 100 µM, respectively.
`COc1c(C=O)c2c(c(OC)c1OC)-c1ccc(OC)c(=O)cc1[C@@H](NC(C)=O)CC2`: the TGI was 24.6 µM with MDA-MB-435; greater than 100 µM with MDA-MB-231 breast; greater than 100 µM in the experiment with A549 NSCLC; 0.632 µM in the experiment with KM12 colon; greater than 100 µM with HOP-62 NSCLC; greater than 100 µM in the experiment on CCRF-CEM leukemia. The TGI in the experiment on SW-620 colon is greater than 100 µM; with COLO 205 colon it was 0.574 µM; in the experiment on PC-3 prostate it was greater than 100 µM.
For the compound `CN(Cc1cnc2nc(N)nc(N)c2n1)c1ccc(C(=O)NC(CCC(=O)O)C(=O)O)cc1C(F)(F)F` (centres undefined), the TGI in the experiment with MDA-MB-435 is greater than 100 µM; in the experiment on MDA-MB-231 breast, greater than 100 µM; with A549 NSCLC, greater than 100 µM; in the experiment on KM12 colon it was greater than 100 µM; in the experiment with HOP-62 NSCLC it was greater than 100 µM; with CCRF-CEM leukemia, 0.486 µM. Moreover, the TGI in the experiment on SW-620 colon, with COLO 205 colon and with PC-3 prostate was greater than 100 µM throughout.
In the case of `O=C(Nc1ccc(Cl)c(Cl)c1)c1cccc(NC2=C(Cl)C(=O)N(Cc3ccccc3)C2=O)c1`, the GI50 in the experiment with MDA-MB-435 is 35.7 µM; in the experiment on MDA-MB-231 breast it was 26.4 µM; in the experiment with A549 NSCLC, 42.9 µM; in the experiment on KM12 colon it was 69 µM; with HOP-62 NSCLC, greater than 100 µM; with CCRF-CEM leukemia it was 23.4 µM. Besides, the values for the GI50 with SW-620 colon, in the experiment with COLO 205 colon and in the experiment with PC-3 prostate were 48.8 µM, greater than 100 µM and 27.2 µM, respectively. Also, the TGI in the experiment with MDA-MB-435, in the experiment on MDA-MB-231 breast, in the experiment with A549 NSCLC, in the experiment with KM12 colon, with HOP-62 NSCLC and in the experiment on CCRF-CEM leukemia was greater than 100 µM throughout. The TGI in the experiment on SW-620 colon, with COLO 205 colon and in the experiment with PC-3 prostate was greater than 100 µM in each case.
Turning to `NCCNc1c2c(c(NCCN)c3c(CO)c[nH]c13)C(=O)c1ccccc1C2=O`, the GI50 was 28.7 µM in the experiment with MDA-MB-435; 15.5 µM with MDA-MB-231 breast; greater than 100 µM in the experiment with A549 NSCLC; 17.3 µM in the experiment with KM12 colon; 4.22 µM in the experiment with HOP-62 NSCLC; 4.28 µM with CCRF-CEM leukemia. In addition, the GI50 was 8.7 µM with SW-620 colon, 8.38 µM in the experiment with COLO 205 colon and 20.1 µM in the experiment with PC-3 prostate. For the same compound, the TGI in the experiment with MDA-MB-435 was greater than 100 µM; in the experiment on MDA-MB-231 breast, 51.4 µM; in the experiment on A549 NSCLC it was greater than 100 µM; with KM12 colon, greater than 100 µM; with HOP-62 NSCLC, greater than 100 µM; in the experiment on CCRF-CEM leukemia, greater than 100 µM. The TGI in the experiment with SW-620 colon, in the experiment on COLO 205 colon and in the experiment on PC-3 prostate was greater than 100 µM throughout.
Turning to `CCOC(=O)c1ccc2[nH]c(-c3ccc(S(=O)(=O)F)cc3)cc(=O)c2c1`, the concentration for total growth inhibition (TGI) in the experiment with MDA-MB-435, in the experiment with MDA-MB-231 breast, with A549 NSCLC, with KM12 colon, in the experiment on HOP-62 NSCLC and in the experiment with CCRF-CEM leukemia was greater than 100 µM each time. Further, the TGI in the experiment on SW-620 colon, in the experiment with COLO 205 colon and in the experiment with PC-3 prostate was greater than 100 µM each time.
As to `Clc1ncnc(Cl)c1Cl`, the TGI with MDA-MB-435, in the experiment on MDA-MB-231 breast, with A549 NSCLC, in the experiment with KM12 colon, in the experiment on HOP-62 NSCLC and in the experiment with CCRF-CEM leukemia was greater than 100 µM throughout. Also, the TGI in the experiment on SW-620 colon, with COLO 205 colon and in the experiment with PC-3 prostate was greater than 100 µM throughout.
As to `O=C[C@@H](CO)O[C@H](C=O)c1c[nH]c(=O)[nH]c1=O`, the TGI with MDA-MB-435 worked out at 155 µM; in the experiment with MDA-MB-231 breast, 389 µM; with A549 NSCLC, 1020 µM; with KM12 colon, 362 µM; in the experiment on HOP-62 NSCLC, 258 µM; in the experiment with CCRF-CEM leukemia it was 973 µM. Moreover, the TGI came to 646 µM in the experiment with SW-620 colon, 1210 µM in the experiment with COLO 205 colon and 790 µM in the experiment with PC-3 prostate.
`CCc1nc(N)nc(N)c1-c1ccc(NCCN)c([N+](=O)[O-])c1`: the TGI in the experiment with MDA-MB-435 is greater than 100 µM; in the experiment on MDA-MB-231 breast, greater than 100 µM; in the experiment on A549 NSCLC it was greater than 100 µM; in the experiment with KM12 colon, greater than 100 µM; in the experiment on HOP-62 NSCLC, 75.8 µM; in the experiment on CCRF-CEM leukemia, greater than 72.4 µM. Further, the values for the TGI in the experiment with SW-620 colon, in the experiment with COLO 205 colon and with PC-3 prostate were greater than 100 µM, 40.4 µM and greater than 100 µM, respectively.
Turning to `COc1cccc(C2c3cc4c(cc3OC(C)(N3CCCC3)C2C)OCO4)c1OC` (centres undefined), the total growth inhibition concentration (TGI) in the experiment on MDA-MB-435 came out at 49.3 µM; with MDA-MB-231 breast it was 52.9 µM; in the experiment on A549 NSCLC it was 35.8 µM; in the experiment on KM12 colon, 23 µM; in the experiment on HOP-62 NSCLC, 30.6 µM; in the experiment with CCRF-CEM leukemia it was 35.7 µM. Moreover, the TGI with SW-620 colon is greater than 100 µM; in the experiment on COLO 205 colon, 24.6 µM; in the experiment on PC-3 prostate, 41.2 µM.
Consider `COc1ccc(C2CC(c3cc(OC)c(OC)c(OC)c3)=NO2)cc1OCCCCOc1cc2c(cc1OC)C(=O)N1CCC[C@H]1C=N2` (some centres undefined), for which the GI50 was 3.54 µM in the experiment with MDA-MB-435; 1.15 µM with MDA-MB-231 breast; 2.33 µM in the experiment with A549 NSCLC; 1.74 µM with KM12 colon; 1.68 µM with HOP-62 NSCLC; 1.41 µM in the experiment on CCRF-CEM leukemia. Besides, the GI50 with SW-620 colon was 1.55 µM; in the experiment with COLO 205 colon, 1.96 µM; in the experiment with PC-3 prostate it was 0.585 µM. Besides, the TGI in the experiment with MDA-MB-435 is greater than 100 µM; in the experiment with MDA-MB-231 breast, 2.61 µM; in the experiment on A549 NSCLC, 5.68 µM; with KM12 colon, 3.32 µM; in the experiment on HOP-62 NSCLC, 3.43 µM; in the experiment on CCRF-CEM leukemia it was 4.27 µM. In addition, the results for the TGI in the experiment with SW-620 colon, in the experiment on COLO 205 colon and in the experiment with PC-3 prostate were 3.15 µM, 4.04 µM and 3.04 µM, respectively.
In the case of `COC(=O)CCC(=O)C(=O)OC`, the GI50 was 62100 µM with MDA-MB-435; 39500 µM with MDA-MB-231 breast; 52900 µM in the experiment on A549 NSCLC; 27900 µM with KM12 colon; 23700 µM in the experiment with HOP-62 NSCLC; 17800 µM with CCRF-CEM leukemia. For the same compound, the GI50 with SW-620 colon was 53600 µM; in the experiment on PC-3 prostate it was 27800 µM. Further, the TGI in the experiment with CCRF-CEM leukemia was 85500 µM; in the experiment on PC-3 prostate, 84500 µM. Moreover, in the experiment with COLO 205 colon, the result was inactive.
As to `Cc1ccc([N+](=O)[O-])cc1NC(=O)Nc1cccc(F)c1`, the GI50 in the experiment on MDA-MB-435 is 3.8 µM; with MDA-MB-231 breast, 13.3 µM; in the experiment with A549 NSCLC it was 3.42 µM; in the experiment with KM12 colon it was 3.67 µM; in the experiment on HOP-62 NSCLC, 9.77 µM; in the experiment on CCRF-CEM leukemia, 3.96 µM. Further, the GI50 is 4.66 µM in the experiment on SW-620 colon, 8.85 µM in the experiment on COLO 205 colon and 3.44 µM in the experiment with PC-3 prostate. Further, the TGI was greater than 100 µM with MDA-MB-435; 96.6 µM with MDA-MB-231 breast; 26.2 µM in the experiment on A549 NSCLC; 48.7 µM in the experiment with KM12 colon; 43 µM in the experiment with HOP-62 NSCLC; greater than 100 µM in the experiment on CCRF-CEM leukemia. Moreover, the TGI with SW-620 colon, with COLO 205 colon and in the experiment with PC-3 prostate was greater than 100 µM each time.
